Measured values reported in the NIST ThermoML archive (doi:10.1021/je400722h).
± gives the expanded uncertainty stated by the source.

Assay: molar heat capacity at constant pressure; xn = mol fraction of the nth substance listed
Conditions: 101 kPa, Liquid, Small sample (50 mg) DSC

Cc1ccccc1Cl [2-chlorotoluene] + C1CCOCC1
molar heat capacity at constant pressure [J/K/mol]
Conditions	298.15 K	303.15 K	308.15 K
x1 = 0.0897	152.82 ± 2.4	154.4 ± 2.4	156.2 ± 2.4
x1 = 0.1165	153.77 ± 2.4	155.35 ± 2.4	157.14 ± 2.4
x1 = 0.1429	154.71 ± 2.4	156.28 ± 2.4	158.07 ± 2.5
x1 = 0.1929	156.46 ± 2.4	158.04 ± 2.5	159.8 ± 2.5
x1 = 0.2376	158.01 ± 2.5	159.59 ± 2.5	161.34 ± 2.5
x1 = 0.2892	159.77 ± 2.5	161.35 ± 2.5	163.09 ± 2.5
x1 = 0.3218	160.85 ± 2.5	162.44 ± 2.5	164.17 ± 2.5
x1 = 0.3519	161.84 ± 2.5	163.43 ± 2.5	165.15 ± 2.6
x1 = 0.4019	163.44 ± 2.5	165.03 ± 2.6	166.75 ± 2.6
x1 = 0.4427	164.71 ± 2.5	166.31 ± 2.6	168.01 ± 2.6
x1 = 0.4817	165.88 ± 2.6	167.49 ± 2.6	169.19 ± 2.6
x1 = 0.5216	167.05 ± 2.6	168.66 ± 2.6	170.35 ± 2.6
x1 = 0.5549	168 ± 2.6	169.62 ± 2.6	171.3 ± 2.6
x1 = 0.5936	169.07 ± 2.6	170.69 ± 2.6	172.36 ± 2.7
x1 = 0.6215	169.81 ± 2.6	171.44 ± 2.7	173.11 ± 2.7
x1 = 0.6518	170.6 ± 2.6	172.23 ± 2.7	173.9 ± 2.7
x1 = 0.6902	171.57 ± 2.7	173.21 ± 2.7	174.87 ± 2.7
x1 = 0.7205	172.31 ± 2.7	173.96 ± 2.7	175.62 ± 2.7
x1 = 0.7515	173.04 ± 2.7	174.7 ± 2.7	176.36 ± 2.7
x1 = 0.7931	173.99 ± 2.7	175.66 ± 2.7	177.32 ± 2.8
x1 = 0.8156	174.49 ± 2.7	176.17 ± 2.7	177.83 ± 2.8
x1 = 0.8472	175.18 ± 2.7	176.87 ± 2.7	178.52 ± 2.8
x1 = 0.8831	175.93 ± 2.7	177.63 ± 2.8	179.3 ± 2.8
x1 = 0.9146	176.56 ± 2.7	178.29 ± 2.8	179.96 ± 2.8

Cc1ccccc1Cl [2-chlorotoluene] + C1COCCO1
molar heat capacity at constant pressure [J/K/mol]
Conditions	298.15 K	303.15 K	308.15 K
x1 = 0.0903	155.43 ± 2.4	156.69 ± 2.4	158.03 ± 2.5
x1 = 0.1278	156.54 ± 2.4	157.84 ± 2.5	159.2 ± 2.5
x1 = 0.1654	157.65 ± 2.4	158.98 ± 2.5	160.36 ± 2.5
x1 = 0.2006	158.69 ± 2.5	160.04 ± 2.5	161.44 ± 2.5
x1 = 0.2343	159.68 ± 2.5	161.05 ± 2.5	162.46 ± 2.5
x1 = 0.2765	160.9 ± 2.5	162.3 ± 2.5	163.73 ± 2.5
x1 = 0.3004	161.59 ± 2.5	163 ± 2.5	164.44 ± 2.5
x1 = 0.3421	162.78 ± 2.5	164.21 ± 2.5	165.66 ± 2.6
x1 = 0.3876	164.06 ± 2.5	165.52 ± 2.6	166.99 ± 2.6
x1 = 0.4002	164.41 ± 2.5	165.87 ± 2.6	167.35 ± 2.6
x1 = 0.4327	165.31 ± 2.6	166.79 ± 2.6	168.28 ± 2.6
x1 = 0.4726	166.39 ± 2.6	167.9 ± 2.6	169.41 ± 2.6
x1 = 0.5117	167.43 ± 2.6	168.97 ± 2.6	170.5 ± 2.6
x1 = 0.5401	168.17 ± 2.6	169.73 ± 2.6	171.28 ± 2.6
x1 = 0.5915	169.49 ± 2.6	171.09 ± 2.6	172.67 ± 2.7
x1 = 0.6305	170.45 ± 2.6	172.09 ± 2.7	173.7 ± 2.7
x1 = 0.6721	171.46 ± 2.7	173.13 ± 2.7	174.77 ± 2.7
x1 = 0.7198	172.57 ± 2.7	174.28 ± 2.7	175.95 ± 2.7
x1 = 0.7401	173.03 ± 2.7	174.76 ± 2.7	176.44 ± 2.7
x1 = 0.7623	173.53 ± 2.7	175.27 ± 2.7	176.97 ± 2.7
x1 = 0.8004	174.36 ± 2.7	176.13 ± 2.7	177.84 ± 2.8
x1 = 0.8432	175.26 ± 2.7	177.05 ± 2.7	178.78 ± 2.8
x1 = 0.8856	176.11 ± 2.7	177.92 ± 2.8	179.66 ± 2.8
x1 = 0.9165	176.7 ± 2.7	178.52 ± 2.8	180.26 ± 2.8

Cc1ccccc1Cl [2-chlorotoluene] + C1COCO1
molar heat capacity at constant pressure [J/K/mol]
Conditions	298.15 K	303.15 K	308.15 K
x1 = 0.0865	127.97 ± 2	129.15 ± 2	130.3 ± 2
x1 = 0.1145	129.85 ± 2	131.07 ± 2	132.27 ± 2
x1 = 0.1386	131.45 ± 2	132.71 ± 2.1	133.94 ± 2.1
x1 = 0.1829	134.37 ± 2.1	135.68 ± 2.1	136.97 ± 2.1
x1 = 0.2145	136.42 ± 2.1	137.77 ± 2.1	139.09 ± 2.1
x1 = 0.2573	139.17 ± 2.2	140.56 ± 2.2	141.91 ± 2.2
x1 = 0.2965	141.65 ± 2.2	143.06 ± 2.2	144.45 ± 2.2
x1 = 0.3217	143.22 ± 2.2	144.65 ± 2.2	146.05 ± 2.3
x1 = 0.3506	144.99 ± 2.2	146.45 ± 2.3	147.87 ± 2.3
x1 = 0.3902	147.38 ± 2.3	148.87 ± 2.3	150.31 ± 2.3
x1 = 0.4216	149.24 ± 2.3	150.75 ± 2.3	152.22 ± 2.4
x1 = 0.4654	151.78 ± 2.4	153.32 ± 2.4	154.82 ± 2.4
x1 = 0.5007	153.78 ± 2.4	155.35 ± 2.4	156.88 ± 2.4
x1 = 0.5418	156.06 ± 2.4	157.66 ± 2.4	159.23 ± 2.5
x1 = 0.5905	158.68 ± 2.5	160.33 ± 2.5	161.94 ± 2.5
x1 = 0.6218	160.32 ± 2.5	162.01 ± 2.5	163.64 ± 2.5
x1 = 0.663	162.44 ± 2.5	164.17 ± 2.5	165.83 ± 2.6
x1 = 0.6902	163.81 ± 2.5	165.56 ± 2.6	167.25 ± 2.6
x1 = 0.7118	164.88 ± 2.5	166.65 ± 2.6	168.36 ± 2.6
x1 = 0.7534	166.91 ± 2.6	168.72 ± 2.6	170.46 ± 2.6
x1 = 0.7927	168.78 ± 2.6	170.62 ± 2.6	172.38 ± 2.7
x1 = 0.8426	171.11 ± 2.6	172.98 ± 2.7	174.76 ± 2.7
x1 = 0.8914	173.35 ± 2.7	175.22 ± 2.7	177 ± 2.7
x1 = 0.9206	174.66 ± 2.7	176.53 ± 2.7	178.31 ± 2.8
